Measured values published in ChEMBL document CHEMBL4346724, “Porphyrinoid photosensitizers mediated photodynamic inactivation against bacteria” (Eur J Med Chem, 2019).

Tests used:
[1] = tested on: Mycobacterium tuberculosis; experiment: Photodynamic antibacterial activity against multidrug resistant Mycobacterium tuberculosis assessed as reduction in bacterial burden at 10 ug/ml preincubated for 2 hrs in dark followed by light irradiation at 50 J/cm2 for 500 secs; type: functional
[2] = tested on: Mycobacterium tuberculosis; experiment: Photodynamic antibacterial activity against extensively drug resistant Mycobacterium tuberculosis assessed as reduction in bacterial burden at 10 ug/ml preincubated for 2 hrs in dark followed by light irradiation at 50 J/cm2 for 500 secs; type: functional

C=Cc1c(C)c2cc3nc(c(C=O)c4[nH]c(cc5nc(cc1[nH]2)C(C)=C5C)c(C)c4C(=O)O)[C@@H](CCC(=O)O)[C@@H]3C
log(activity) [1]: 3.1
log(activity) [2]: 2.8
